{"source": "patent US20030044413A1", "about": "“Methods of limiting apoptosis of cells” (Regents of the University of Minnesota, priority 1998, published 2003)", "key": {"Hep G2 cells": {"test_system": "Hep G2 cells", "experiment": "Anti-Fas antibody-induced apoptosis, Hep G2 cells", "format": "cell-based", "description": "Incubation of cells with ethanol, TGF-β1, anti-Fas antibody or okadaic acid. Freshly isolated rat hepatocytes were cultured for 3 h as described above and then incubated with William's E medium supplemented with either 0.5% ethanol, 50 μM UDCA, ethanol plus UDCA, or no addition (control) for 2 h and 4 h. HuH-7 cells were incubated with Dulbecco's medium supplemented with either 1 nM TGF-β1 (R & D Systems, Minneapolis, Minn.), 100 μM UDCA, TGF-β1+UDCA, or no addition (control) for 24 h, 48 h, and 72 h. Hep G2 cells were incubated with Dulbecco's medium supplemented with either 0.5 μg/ml of anti-Fas antibody CH-11 (Upstate Biotechnology, Inc., Lake Placid, N.Y.), 100 μM UDCA, CH-11+UDCA, or no addition for 48 h. Both HuH-7 cells and human osteogenic sarcoma Saos-2 cells were cultured in Dulbecco's medium supplemented with either 50 nM okadaic acid (Boehringer Mannheim Biochemicals, Inc, Indianapolis, Ind.), 100 μM UDCA, okadaic acid+UDCA, or no addition for 48 h. […]\nMorphological evaluation of apoptosis. […] Fluorescence was visualized with a Zeiss standard fluorescence microscope (Carl Zeiss, Inc., Thornwood, N.Y.). […] Stained nuclei were scored by blind analysis and categorized according to the condensation and staining characteristics of chromatin. […] Three fields per dish of approximately 500 nuclei were counted; mean values are expressed as the percent of apoptotic nuclei."}, "Bax": {"test_system": "Bax", "experiment": "Bax translocation from cytosol to mitochondria in rat hepatocytes", "format": "cell-based", "details": "preincubation with UDCA", "description": "Isolation of cytosol and mitochondrial fractions and determination of cytochrome c and Bax content. Freshly isolated rat hepatocytes were cultured for 3 hours as described above and then incubated with William's medium supplemented with either 50 μM of DCA for 4 h, 1 nM TGF-β1 for 24 h and […] okadaic acid for 16 h, in the presence or absence of 100 μM UDCA, or no addition (control). Time-course experiments were also performed. Cells (1.0×10^7/ml) were harvested by centrifugation at 600×g for 5 min at 4° C. The cell pellets were washed once in ice-cold PBS and resuspended with 3 volumes of isolation buffer containing 20 mM Hepes-KOH, pH 7.5, 10 mM KCl, 1.5 mM MgCl2, 1 mM sodium EDTA, 1 mM sodium EGTA, 1 mM dithiothreitol (DTT), suplemmented with the COMPLETE protease inhibitor cocktail (Boehringer Mannheim Biochemicals, Inc., Indianapolis, Ind.) in 250 mM sucrose. After chiling on ice for 15 min, the cells were disrupted by 40 stokes of a glass homogeneizer and the homogenates were centrifuged twice at 2,500×g for 10 min at 4° C. to remove unbroken cells and nuclei. The mitochondria were pelleted by centrifugation at 12,000×g for 30 min at 4° C., resuspended in isolation buffer containing 250 mM sucrose and frozen at −80° C. […]"}}}
{"smiles": "C[C@H](CCC(=O)O)[C@H]1CC[C@H]2[C@@H]3[C@@H](O)C[C@@H]4C[C@H](O)CC[C@]4(C)[C@H]3CC[C@]12C", "note": "[UDCA, ursodeoxycholic acid]", "values": [{"measurement": "cells exhibiting apoptotic changes", "setting": "Hep G2 cells; 0.5 μg/ml CH-11 or 100 μM UDCA alone, 48 h", "value": 0.7, "unit": "%"}, {"measurement": "Inhibition % Apoptosis", "setting": "Hep G2 cells; inducer CH-11, Hep G2, inhibition by UDCA", "value": "83.2 ± 7.0", "unit": "%"}, {"measurement": "prevention of Bax translocation", "setting": "Bax", "value": 45, "unit": "%"}]}
